Results on three compounds are retold here after patent US6482990B1, “Prostaglandin E analogues” (Taisho Pharmaceutical Co., Ltd., priority 1999, dated 2002).

This test deals with human vascular smooth muscle cells. Nature of the test: DNA synthesis inhibition activity (3H-thymidine intake) in human vascular smooth muscle cells. The settings on record: for inhibiting activity on the growth of human vascular smooth muscle cells: conclusion in words from Table 2; for IC50: vascular cells derived from normal human aorta, 24 hours culture with 3H-thymidine, test compound as ethanol solution, compared with vehicle-treated control. In kind it is cell-based. As for the experimental part:
Determination of DNA synthesis inhibition activity of PGE1 analogs to human vascular smooth muscle cells
On a 24 well-plate (manufactured by Corning Co.), 1×10^4 cells/well of quintic culture cells of vascular cells derived from normal human aorta (produced by Kurabo Co.) were inoculated and cultured for 2 days. The medium was exchanged from the growth medium (SG2: produced by Kurabo Co.) to the basal medium (SB2: produced by Kurabo Co.), and cultured for 24 hours, to which was added the growth medium (SG2) containing an ethanol solution of the test compound. ^3H-thymidine (produced by Daiichi Chemicals Co.) was added in an amount of 0.01 mci/well and, after culturing for 24 hours, the cultured supernatant was removed by suction, followed by washing with a phosphate buffer solution (PBS).
5% Trichloroacetic acid (TCA) was added and, after allowing to stand at 4° C. for 20 minutes, the mixture was washed once with TCA. The mixture was washed with PBS, and dissolved in 0.5 N KOH. Intake of ^3H-thymidine was determined using 20 μl of KOH dissolving the cells which incorporated ^3H-thymidine in the nucleus by means of a liquid scintillation counter (manufactured by Hewlett-Packard Co.).

For orientation: IC50 means the midpoint of a concentration-inhibition curve. Low values mean greater potency, high ones weaker potency.

SMILES strings stand for the structures.

On to `Cc1ccc(CCCC2C(=O)CC(O)C2C=CC(O)CCc2ccccc2)cc1` (centres unmarked) [Compound 29, 2-Decarboxy-2,3,4,18,19,20-hexanor-5-(4-methylphenyl)-17-phenyl-PGE1], for which the “inhibiting activity on the growth of human vascular smooth muscle cells” value is listed as “high inhibiting activity” and the IC50 worked out at 730 nM.
In turn, `COC(=O)/C=C/CCCCC1C(=O)CC(O)C1C#CC(O)CCc1ccccc1` (centres unmarked) [Comparative Compound, (2E)-18,19,20-Trinor-17-phenyl-2,3,13,14-tetradehydro-PGE1 methyl ester, reference compound] had an IC50 of 4360 nM.
In the case of `O=C1CC(O)C(C=CC(O)CCc2ccccc2)C1CCCc1ccc(C(F)(F)F)cc1` (centres unmarked) [Compound 18, 2-Decarboxy-2,3,4,18,19,20-hexanor-5-(4-trifluoromethylphenyl)-17-phenyl-PGE1], the “inhibiting activity on the growth of human vascular smooth muscle cells” value was “high inhibiting activity” and half-maximal inhibition (IC50) was put at 660 nM.
